Measured values: PubChem BioAssay (NCI)
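Method: 48-hour compound exposure of cells in 96-well plates, five concentrations, linear interpolation of endpoints. Definition used: TGI = concentration required for complete inhibition of growth.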

Legend:
Assay in all cases: growth of human tumour cells (NCI), 48 h
[1] = tested on: NCI/ADR-RES ovarian
[2] = tested on: U251 CNS
[3] = tested on: A549 NSCLC
[4] = tested on: OVCAR-4 ovarian
[5] = tested on: SNB-19 CNS
[6] = tested on: SK-MEL-2 melanoma
[7] = tested on: DU-145 prostate
[8] = tested on: MDA-MB-231 breast
[9] = tested on: MCF7 breast
[10] = tested on: UACC-62 melanoma
[11] = tested on: HCT-15 colon
[12] = tested on: SK-MEL-28 melanoma
[13] = tested on: M14 melanoma
[14] = tested on: OVCAR-3 ovarian
[15] = tested on: HCC-2998 colon
[16] = tested on: SN12C renal
[17] = tested on: NCI-H23 lung
[18] = tested on: K-562 leukemia
[19] = tested on: HOP-62 NSCLC
[20] = tested on: TK-10 renal
[21] = tested on: NCI-H460 lung
[22] = tested on: SK-OV-3 ovarian
[23] = tested on: BT-549 breast
[24] = tested on: OVCAR-5 ovarian
[25] = tested on: T-47D breast
[26] = tested on: ACHN renal
[27] = tested on: HCT-116 colon
[28] = tested on: A498 renal
[29] = tested on: COLO 205 colon
[30] = tested on: SNB-75 CNS
[31] = tested on: NCI-H226 lung
[32] = tested on: CAKI-1 renal
[33] = tested on: MALME-3M melanoma
[34] = tested on: SF-268 CNS
[35] = tested on: HOP-92 NSCLC
[36] = tested on: MDA-N
[37] = tested on: EKVX NSCLC
[38] = tested on: NCI-H522 lung
[39] = tested on: RPMI-8226 leukemia
[40] = tested on: 786-0 renal
[41] = tested on: KM12 colon
[42] = tested on: UACC-257 melanoma
[43] = tested on: UO-31 renal
[44] = tested on: SF-295 CNS
[45] = tested on: MDA-MB-435
[46] = tested on: SK-MEL-5 melanoma
[47] = tested on: PC-3 prostate
[48] = tested on: LOX IMVI melanoma
[49] = tested on: CCRF-CEM leukemia
[50] = tested on: SR leukemia
[51] = tested on: RXF 393 renal
[52] = tested on: SW-620 colon
[53] = tested on: MOLT-4 leukemia
[54] = tested on: SF-539 CNS
[55] = tested on: OVCAR-8 ovarian
[56] = tested on: HT29 colon
[57] = tested on: IGROV1 ovarian
[58] = tested on: HL-60(TB) leukemia

Measured: TGI

CC(C)(C)c1cc(COc2cc(COc3ccc(-c4c5c(nc6c4CCc4ccc(-c7c8ccccc8nc8ccccc78)cc4-6)-c4cc(-c6c7ccccc7nc7ccccc67)ccc4CC5)cc3)cc(OCc3cc(C(C)(C)C)cc(C(C)(C)C)c3)c2)cc(C(C)(C)C)c1
> 100 µM: [1] | [2] | [3] | [4] | [5] | [6] | [7] | [8] | [9] | [10] | [11] | [12] | [13] | [14] | [15] | [16] | [17] | [18] | [19] | [20] | [21] | [22] | [23] | [24] | [25] | [26] | [27] | [28] | [29] | [30] | [31] | [32] | [33] | [34] | [35] | [36] | [37] | [38] | [39] | [40] | [41] | [42] | [43] | [44] | [45] | [46] | [47]

COc1ccc(-c2nc3cc(F)ccc3s2)cc1O
60.8 µM: [37]
54.1 µM: [23]
59 µM: [46]
77.1 µM: [39]
64 µM: [32]
61.8 µM: [42]
94.4 µM: [29]
> 100 µM: [1] | [2] | [3] | [4] | [5] | [49] | [7] | [8] | [9] | [10] | [11] | [12] | [13] | [14] | [51] | [16] | [17] | [18] | [52] | [21] | [22] | [24] | [53] | [26] | [27] | [54] | [55] | [31] | [33] | [34] | [36] | [41] | [43] | [45] | [56] | [47]
46.9 µM: [25]
66.3 µM: [28]
79.3 µM: [48]
81.3 µM: [57]
78 µM: [6]
47.7 µM: [50]
12.7 µM: [15]
42.1 µM: [38]
70 µM: [20]
55.1 µM: [40]
49 µM: [44]
66.1 µM: [58]

CCN(C(=O)N[C@@H](Cc1ccccc1)C(=O)N[C@@H](CC(C)C)C(=O)NC)c1ccccc1
> 100 µM: [1] | [2] | [3] | [4] | [48] | [5] | [49] | [6] | [7] | [8] | [9] | [10] | [11] | [12] | [13] | [14] | [51] | [15] | [16] | [17] | [18] | [19] | [20] | [52] | [21] | [22] | [23] | [24] | [53] | [25] | [26] | [27] | [54] | [55] | [29] | [30] | [31] | [32] | [33] | [35] | [36] | [37] | [38] | [39] | [40] | [41] | [42] | [43] | [44] | [45] | [56] | [57] | [46] | [47]

NCc1ccc(O)c(O)c1
> 100 µM: [1] | [2] | [3] | [4] | [48] | [5] | [49] | [6] | [7] | [50] | [8] | [9] | [10] | [11] | [12] | [13] | [14] | [51] | [15] | [16] | [17] | [18] | [19] | [52] | [21] | [22] | [23] | [24] | [53] | [25] | [26] | [27] | [28] | [54] | [55] | [29] | [30] | [31] | [32] | [35] | [36] | [37] | [39] | [40] | [41] | [42] | [43] | [44] | [45] | [56] | [57] | [46] | [47]
41 µM: [58]

O=c1[nH]cnc2c1cnn2Cc1cn(COCC(O)CO)nn1 (stereo not drawn)
> 100 µM: [1] | [2] | [3] | [4] | [48] | [5] | [49] | [6] | [7] | [50] | [8] | [9] | [10] | [11] | [12] | [13] | [14] | [15] | [16] | [17] | [18] | [19] | [20] | [52] | [22] | [23] | [24] | [53] | [25] | [26] | [27] | [28] | [54] | [55] | [29] | [31] | [32] | [35] | [36] | [37] | [39] | [40] | [41] | [42] | [43] | [44] | [45] | [56] | [57] | [58] | [46] | [47]
62.7 µM: [38]
